For twelve molecules, activity results are on record in US5063243A, “Derivative of caffeic acid and pharmaceutical composition containing the same” (Suntory, Ltd., priority 1988, dated 1991).

What all share (type): biochemical
For test [1], the target named is T1, 12-lipoxygenase (Rattus norvegicus, UniProt F1LQ70).
T1 construct: Washed platelet was prepared in the usual way; from tissue; host or cells: rat blood platelets (Method 1: washed platelets; Method 2: frozen, thawed and ultrasonified platelets; Method 3: platelet soluble fraction after freeze-thaw and centrifugation)
T1 sequence (F1LQ70 1-663): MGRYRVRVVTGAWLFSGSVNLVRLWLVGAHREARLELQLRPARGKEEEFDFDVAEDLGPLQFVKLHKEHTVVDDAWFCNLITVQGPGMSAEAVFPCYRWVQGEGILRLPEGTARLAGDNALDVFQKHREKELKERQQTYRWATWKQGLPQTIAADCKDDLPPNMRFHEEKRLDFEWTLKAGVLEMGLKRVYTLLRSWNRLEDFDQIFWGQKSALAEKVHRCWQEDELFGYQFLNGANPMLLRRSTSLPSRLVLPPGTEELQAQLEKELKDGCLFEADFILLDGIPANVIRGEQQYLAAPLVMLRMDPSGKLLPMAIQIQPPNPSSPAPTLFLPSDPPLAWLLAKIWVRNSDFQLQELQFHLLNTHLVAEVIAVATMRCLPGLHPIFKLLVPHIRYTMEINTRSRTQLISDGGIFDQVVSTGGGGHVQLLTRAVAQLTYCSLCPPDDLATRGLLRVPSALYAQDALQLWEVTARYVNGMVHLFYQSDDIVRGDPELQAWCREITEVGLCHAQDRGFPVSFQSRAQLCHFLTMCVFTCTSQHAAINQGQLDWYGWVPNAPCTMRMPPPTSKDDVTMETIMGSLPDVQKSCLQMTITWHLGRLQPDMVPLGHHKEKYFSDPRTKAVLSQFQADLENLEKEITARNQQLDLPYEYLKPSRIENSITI
Briefly: 12-lipoxygenase inhibitory activity, Method 1 (washed rat platelet, 12-HETE production). The note with it: sample compound 10 μM, 3 to 5 minutes at 37° C., control without sample compound = 100%, read-out: production index of 12-HETE, Method 1 (%). The method, then: (§1) The 12-lipoxygenase inhibitory activity of the compounds of the present invention was measured by conducting the three types of pharmacological tests described below.
Citrated blood was collected from the abdominal aorta of a rat. Washed platelet was prepared in the usual way, diluted with phosphate buffer (pH=8.0) containing 0.45% NaCl and used as the enzyme solution. To the solution were added the sample compound (10 μM), [^14 C]arachidonicacid (0.2 μCi) and arachidonic acid (3 μg) and the mixture was reacted for 3 to 5 minutes at 37° C. The reaction mixture was developed by thin layer chromatography and 12-HETE was identified by a radio chromato scanner. The reduction in 12-HETE production which resulted was used as the index of 12-lipoxygenase inhibitory activity.
(§2) The production indexes of 12-HETE under the inhibitory influence of the compounds of the present invention are shown in Table 2, where the production amount of the control experiment (in the absence of the sample compound) is 100%.

In test [2] the target is T1, 12-lipoxygenase. Briefly: 12-lipoxygenase inhibitory activity, Method 2 (ultrasonified rat platelet enzyme solution, 12-HETE production). The note with it: 5 min, sample compound 1 μM, arachidonic acid 4.3 μM, 5 minutes at 37° C., control without sample compound = 100%, read-out: production index of 12-HETE, Method 2 (%). The method, then: The 12-lipoxygenase inhibitory activity of the compounds of the present invention was measured by conducting the three types of pharmacological tests described below. Citrated blood was collected from the heart of a rat and platelet-rich plasma was prepared in the usual way. The plasma was washed twice with isotonic buffer solution (A) [134 mM NaCl, 5 mM D-glucose, 1 mM EDTA, 1 mM EGTA, 15 mM Tris-HCl (pH=7.4)], frozen and stored at -80° C. It was thawed before use, ultrasonified in ice water and used as the enzyme solution. To the isotonic buffer solution (A) were added 1 mM GSH, the sample compound (final concentration: 1 μM) and the enzyme solution (300 to 500 μg protein) and the mixture was pre-incubated for 5 minutes at 37° C.; then [^14 C]arachidonic acid (0.05 μCi) (final concentration: 4.3 μM) was further added and reacted for 5 minutes. […] The reduction in 12-HETE production was used as the index of 12-lipoxygenase inhibitory activity.

In test [3] the target is T1, 12-lipoxygenase. Briefly: 12-lipoxygenase inhibitory activity, Method 3 (rat platelet soluble fraction, 12-HETE production). The note with it: 5 min, sample compound 10 μM, arachidonic acid 40 μM, 5 minutes at 37° C., control without sample compound = 100%, read-out: production index of 12-HETE, Method 3 (%). The protocol: as §1
The platelet-rich plasma obtained in the same way as described in Method 2 was washed successively with isotonic buffer solution (A) and isotonic buffer solution (B) [134 mM NaCl, 5 mM D-glucose, 0.1 mM DETA, 0.1 mM EGTA, 15 mM Tris-HCl (pH=7.4)] in that order, and suspended in a hypotonic buffer solution (C) [25 mM Tris-HCl (pH=7.7)]. The suspension was treated by a "freeze-thaw" procedure three times and centrifuged at 10500× g for 60 minutes. An aliquot of the supernatant (platelet soluble fraction) was used as the enzyme solution. To the hypotonic buffer solution (C) were added 1 mM GSH, [^14 C]arachidonic acid (0.025 μCi) (final concentration: 40 μM), the sample compound (final concentration: 10 μM) and the enzyme solution (50 μg protein) and the mixture was reacted for 5 minutes at 37° C. The index of 12-lipoxygenase inhibitory activity was obtained in the same way as described in Method 2.
as §2

The structures appear in SMILES notation.

As for `O=c1cc(-c2ccccc2)oc2cc(O)c(O)c(O)c12` [Baicalein, baicalein, reference compound], the values for the activity at 10 µM at 12-lipoxygenase [1] and at 12-lipoxygenase [3] were 27% and 22.7%, respectively. Moreover, the activity at 1 µM on 12-lipoxygenase [2] was found to be 9.8%.

Consider `CCOC(=O)C(C#N)=Cc1ccc(O)c(O)c1` [Compound No. 1, Ethyl 2-cyano-3-(3,4-dihydroxyphenyl)-2-propenoate], for which, on 12-lipoxygenase [1], the activity at 10 µM amounted to 38.1%.

On to `COC(=O)C(C#N)=Cc1ccc(O)c(O)c1` [Compound No. 5, methyl 2-cyano-3-(3,4-dihydroxyphenyl)-2-propenoate], for which, on 12-lipoxygenase [1], the activity at 10 µM was 36%.

Take `CC(C)OC(=O)C(C#N)=Cc1ccc(O)c(O)c1` [Compound No. 6, isopropyl 2-cyano-3-(3,4-dihydroxyphenyl)-2-propenoate]: at 12-lipoxygenase [1], the activity at 10 µM came out at 31.4%.

`N#CC(=Cc1ccc(O)c(O)c1)C(=O)OCCc1ccccc1` [Compound No. 9, Phenethyl 2-cyano-3-(3,4-dihydroxyphenyl)-2-propenoate]: the activity at 1 µM at 12-lipoxygenase [2] worked out at 10%. The activity at 10 µM on 12-lipoxygenase [3] stood at 25.1%.

`N#CC(=Cc1ccc(O)c(O)c1)C(=O)OCCCc1ccccc1` [compound 10, Phenylpropyl 2-cyano-3-(3,4-dihydroxyphenyl)-2-propenoate]: the activity at 1 µM on 12-lipoxygenase [2] amounted to 12.1%.

`N#CC(=Cc1ccc(O)c(O)c1)C(=O)OCCCCc1ccccc1` [compound 11, Phenylbutyl 2-cyano-3-(3,4-dihydroxyphenyl)-2-propenoate]: the activity at 1 µM at 12-lipoxygenase [2] came to 14.2%.

With `COc1ccc(CCOC(=O)C(C#N)=Cc2ccc(O)c(O)c2)cc1` [compound 13, 4-Methoxyphenethyl 2-cyano-3-(3,4-dihydroxyphenyl)-2-propenoate], the activity at 10 µM at 12-lipoxygenase [3] was found to be 19.5%.

As for `COc1ccccc1CCOC(=O)C(C#N)=Cc1ccc(O)c(O)c1` [compound 14, 2-Methoxyphenethyl 2-cyano-3-(3,4-dihydroxyphenyl)-2-propenoate], the activity at 10 µM at 12-lipoxygenase [3] turned out to be 19.1%.

Consider `N#CC(=Cc1ccc(O)c(O)c1)C(=O)OCCc1cccs1` [compound 15, 2-(2-Thienyl)ethyl 2-cyano-3-(3,4-dihydroxyphenyl)-2-propenoate], for which the activity at 1 µM at 12-lipoxygenase [2] came out at 8.7%.

With `N#CC(=Cc1ccc(O)c(O)c1)C(=O)OCC=Cc1ccccc1` [compound 17, 3-Phenyl-2-propenyl 2-cyano-3-(3,4-dihydroxyphenyl)-2-propenoate], the activity at 1 µM at 12-lipoxygenase [2] was 13.2%.

With `N#CC(=Cc1ccc(O)c(O)c1)C(=O)OCCOc1ccccc1` [compound 18, 2-Phenoxyethyl 2-cyano-3-(3,4-dihydroxyphenyl)-2-propenoate], the activity at 1 µM at 12-lipoxygenase [2] worked out at 8.5%.
